Results as given in patent publication US11130960B2, “Methods for conferring or enhancing herbicide resistance on plants and/or alga with protoporphyrinogen oxidase variants” (FARM HANNONG CO., LTD., priority 2014, dated 2021).

How the values were obtained:
CyPPO8 = assay: Growth inhibition of transformed PPO-deficient E. coli BT3(ΔPPO) on LB agar medium; type: cell-based, Halothece sp. PCC 7418; details: 37° C., 16~20 hours
Source text: (§1) To test herbicide resistance of CyPPO2, CyPPO4, CyPPO8 and CyPPO12 isolated in Example 1, PPO-deficient BT3 E. coli [hereinafter, referred to as BT3(ΔPPO)] was transformed with CyPPO2, CyPPO4, CyPPO8 or CyPPO12 gene, respectively and then cultured in the presence of herbicides to examine growth inhibition of the transformed E. coli. As a negative control, Arabidopsis thaliana-derived wild-type PPO (wild-type AtPPO1) was used, and wild-type AtPPO1 has sensitivity to PPO-based herbicides and its sequence information is available in GeneBank accession no. AX084732 (a nucleotide sequence of the gene is represented by SEQ ID NO: 10, and an amino acid sequence thereof is represented by SEQ ID NO: 9). As a positive control, Mutant AtPPO1 was used, in which amino acid replacements of Y426M (replacement of tyrosine by methionine at position 426) and S305L (replacement of serine by leucine at position 305) occur in the amino acid sequence of the wild-type AtPPO1 (an amino acid sequence is represented by SEQ ID NO: 11) (Li X, Volrath S L., N D B. G., Chilcott C E, Johnson M A, Ward E R, Law M D (2003) Development of protoporphyrinogen oxidase as an efficient selection marker for Agrobacterium tumefaciens-mediated transformation of maize. Plant physiology 133:736-747).
(§2) BT3(ΔPPO) strain was provided by Hokkaido University (Japan) and it is an E. coli strain which is deficient in hemG-type PPO and has Kanamycin resistance (Watanabe et al., (2001) Dual targeting of spinach protoporphyrinogen oxidase II to mitochondria and chloroplasts by alternative use of two in-frame […] codons. JBC 2047420481).
(§3) HVE-50 autoclave from Hirayama, HS2100A electronic scale from Hansung Instrument, CB-30V clean bench from Jeio Tech, JSI-200CL incubator from JSR, 1210 type UV-visible spectrophotometer from Thermo Fisher Scientific, MQ-200 photometer from Apogee, and Bio-Rad MyCycler as PCR machine were used. The autoclave was used under conditions of 121° C. and 15 minutes, and the incubator was used at 37° C. with lighting of 160˜200 μmol m^−2 s^−1 for a culture time of 14˜20 hours. LB medium (10 g/L of Bacto-Tryptone, 5 g/L of Yeast extract, 10 g/L of sodium chloride, 15 g/L of Bacto agar) and an antibiotic Chloramphenicol (Duchefa) were used.
(§4) To clone each of the CyPPO2, CyPPO4, CyPPO8 and CyPPO12 genes isolated and amplified in Example 1 into pACBB (its structure is shown in FIG. 2), 10 μl of a solution containing 4 μl of each PPO gene, […], 1 μl of 10× buffer A, 1 μl of 10× buffer B, 1 μl of ligase (RBC, 3 unit/μl) was prepared and allowed to react at 22° C. for 30 minutes. The reaction solution was added to 100 μl of DH5 alpha competent cells, and allowed to react on ice for 20 minutes and then left at 42° C. for 40 seconds. Thereafter, the cells were left on ice for 2 minutes, and then 1 ml of LB broth was added thereto, followed by incubation with shaking at 37° C. for 1 hour. The strains having each gene insert in the culture medium were harvested, and then cultured on LB agar medium containing chloramphenicol.
(§5) For seed culture of E. coli transformed with respective genes, single colonies thereof were cultured in 3 ml of LB broth containing chloramphenicol overnight, and each 100 μl thereof was sub-cultured in 3 ml of fresh LB broth until absorbance (OD600) reached 0.5˜1. They were diluted with LB broth to absorbance (OD600) of 0.5. 10-fold dilution of this diluted solution was performed with LB broth five times. Next, 10 μl of the diluted solution of the transformed E. coli culture was dropped on LB agar medium (petri dish) containing chloramphenicol and a variety of herbicide stocks at different concentrations (0˜400 μM). The LB agar plates were incubated at 37° C. At 16˜20 hours after culture, growth inhibition was examined with the naked eye. Further, growth inhibition of the strains cultured in a medium containing Tiafenacil was examined under light (lighting of 169 μmol m^−2s^−1) and dark conditions.

CyPPO2 = assay: as above; type: cell-based, Oscillatoria nigro-viridis PCC 7112; details: 37° C., 16~20 hours
Source text: as §1, §2, §3, §4, §5

Structure (SMILES) | concentration at which growth inhibition was hardly observed (CyPPO8) | concentration at which growth inhibition was hardly observed (CyPPO2)
CC(C)=C1OC(=O)N(c2cc(OC3CCCC3)c(Cl)cc2F)C1=O [Pentoxazone] | 400 µM | 400 µM
C#CCN(C)c1c(C#N)cnn1-c1nn2c(c1Cl)CCCC2 [Pyraclonil] | 400 µM | 400 µM
CC(C)N(C)S(=O)(=O)NC(=O)c1cc(-n2c(=O)cc(C(F)(F)F)n(C)c2=O)c(F)cc1Cl [Saflufenacil] | 25 µM | 25 µM
C#CCN1C(=O)COc2cc(F)c(N3C(=O)C4=C(CCCC4)C3=O)cc21 [Flumioxazin] | 25 µM | 25 µM
CCOc1cc(Oc2ccc(C(F)(F)F)cc2Cl)ccc1[N+](=O)[O-] [Oxyfluorfen] | 400 µM | 400 µM
COC(=O)CCNC(=O)C(C)Sc1cc(-n2c(=O)cc(C(F)(F)F)n(C)c2=O)c(F)cc1Cl (centres unmarked) [Tiafenacil] | 25 µM | 25 µM
Cc1nn(-c2cc(NS(C)(=O)=O)c(Cl)cc2Cl)c(=O)n1C(F)F [Sulfentrazone] | 400 µM | 400 µM
CCOC(=O)COc1cc(-c2nn(C)c(OC(F)F)c2Cl)c(F)cc1Cl [Pyraflufen-ethyl] | 400 µM | 400 µM
C=CCOC(=O)C(C)(C)OC(=O)c1cc(-n2c(=O)cc(C(F)(F)F)n(C)c2=O)ccc1Cl [Butafenacil] | 25 µM | 25 µM
CC(C)Oc1cc(-n2nc(C(C)(C)C)oc2=O)c(Cl)cc1Cl [Oxadiazon] | 400 µM | 400 µM
O=C(O)c1cc(Oc2ccc(C(F)(F)F)cc2Cl)ccc1[N+](=O)[O-] [Acifluorfen] | 400 µM | 400 µM
CS(=O)(=O)NC(=O)c1cc(Oc2ccc(C(F)(F)F)cc2Cl)ccc1[N+](=O)[O-] [Fomesafen] | 400 µM | 400 µM
COC(=O)CSc1cc(/N=c2\sc(=O)n3n2CCCC3)c(F)cc1Cl [Fluthiacet-methyl] | 400 µM | 400 µM
